Patent EP0907364B1, “SUSTAINED RELEASE PHARMACEUTICAL COMPOSITIONS COMPRISING A DIBENZOTHIAZEPINE DERIVATIVE” (AstraZeneca AB, priority 1996, dated 1997)
≈ marks a conversion by molar mass, not a printed value.

Assay: physchem
Conditions: 20 °C, water, thermodynamic from solid

- solubility thermodynamic: 3290 µg/mL (≈ 8.58 mM)
Compound: OCCOCCN1CCN(C2=Nc3ccccc3Sc3ccccc32)CC1 [11-[4-[2-(2-hydroxyethoxy)ethyl]-1-piperazinyl]dibenzo[b,f][1,4]-thiazepine]
